# Experimental data as given in patent US6949516B2, “Dipeptide apoptosis inhibitors and the use thereof” (Cytovia, Inc., priority 1997, dated 2005).
# Tested on: HeLa cells
# Assay: Cell death assay with HeLa cells, quantitative (calcein AM), TNF-α/CHX challenge
# Assay type: cell-based
# Procedure: The cytoprotective properties of Cbz-Val-Asp(OMe)CH2F were tested using HeLa cells challenged with tumor necrosis factor-alpha (TNF-α) and cycloheximide (CHX). This is a well-characterized cell culture model of apoptosis which is commonly used to analyze anti-apoptotic agents. Two types of experiments were performed: a qualitative assessment of cell death by visualization of the cells using phase contrast microscopy; and a quantitative assessment of cell death using the fluorescent dye calcein AM.
# For quantitative assays, the degree of cell survival in the presence of test compounds is analyzed quantitatively using the indicator dye calcein AM. This dye is taken up and converted to a fluorescent derivative by living cells; the amount of activated dye in each well can then be assayed in a fluorometric plate reader and the degree of fluorescence is used as a measure of the number of surviving cells. For these assays, HeLa cells are seeded in 48-well plates at a density of 25,000 cells per well in 0.4 mL of Minimal Essential Medium containing 2 mM glutamine and 10% fetal bovine serum. 24 hours later the plating medium is removed and 0.5 mL of fresh medium containing test compound at various concentrations is added. The cells are pre-incubated with test compound for 2 hours at 37° C. in a CO2 incubator and then TNF-α and CHX are added at final concentrations of 25 ng/mL and 30 μg/mL, respectively. After a 24 hour incubation period, the cultures are washed twice with serum-free, phenol red-free Ham's F12 to remove dead cells and 125 μL of Ham's F12 containing 8 μM calcein AM is added. […] The data are expressed as “Percent Control,” which is calculated by the following equation: Percent Control=(Calcein AM Signal in the Presence of Test Compound+TNF-α and CHX/(Calcein AM Signal in the Presence of CHX Only)×100% The use of CHX-treated cultures as controls, rather than untreated cultures, allows one to correct for the cytostatic effects of CHX. However, because CHX by itself is also a mild inducer of apoptosis in HeLa cells, strong anti-apoptotic drugs will give a Percent Control value greater than 100%.
# Quantitative experiments using calcein AM, as described above, corroborate the results obtained by microscopic examination. FIGS. 4 and 5 illustrate the results of two such experiments where the cytoprotective properties of Cbz-Val-Asp(OMe)-CH2F (a) were compared to BOC-Asp(OMe)-CH2F (b) (FIG. 5) and Cbz-Asp(OMe)-Glu(OMe)-Val-Asp(OMe)-CH2F (SEQ ID NO:1) (c) (FIG. 4) at three concentrations (0.5, 5 and 50 μM). […] By contrast, Cbz-Val-Asp(OMe)-CH2F (a) is as effective a cytoprotectant at 0.5 μM as Cbz-Asp(OMe)-Glu(OMe)-Val-Asp(OMe)-CH2F (SEQ ID NO:1) […] is at 50 μM (FIG. 4).
# In order to determine the effect of Cbz-Val-Asp(OMe)-CH2F at low doses, HeLa cells were treated with a range of concentrations from 0.05 μM to 1 μM.
smiles,measurement,setting,value
"COC(=O)CC(NC(=O)C(NC(=O)OCc1ccccc1)C(C)C)C(=O)CF (stereo not drawn) [Cbz-Val-Asp(OMe)-CH2F, Z-Val-Asp-fmk Methyl Ester]",protection of HeLa cells from TNF-α/CHX (calcein AM),0.5 μM,highly active
same,concentration giving significant protection of HeLa cells from TNF-α/CHX,range 0.05 μM to 1 μM tested,≤ 0.25 µM
